Measurements reported in the NIST ThermoML archive (doi:10.1021/je700260f).

Conditions: Liquid, Vibrating tube method

FC(C(F)(F)F)C(F)(F)F [1,1,1,2,3,3,3-heptafluoropropane]
Conditions | mass density [kg/m3]
303.15 K, 31383 kPa | 1520.3
303.15 K, 31415 kPa | 1520.5
303.15 K, 31442 kPa | 1520.5
303.15 K, 31478 kPa | 1520.6
303.15 K, 31506 kPa | 1520.8
303.15 K, 31538 kPa | 1520.8
303.15 K, 31570 kPa | 1521.1
303.15 K, 31607 kPa | 1521.1
303.15 K, 31634 kPa | 1521.1
303.15 K, 31671 kPa | 1521.3
303.15 K, 31699 kPa | 1521.4
303.15 K, 31745 kPa | 1521.4
303.15 K, 31773 kPa | 1521.7
303.15 K, 31806 kPa | 1521.7
303.15 K, 31839 kPa | 1521.9
303.15 K, 31871 kPa | 1521.8
303.15 K, 31914 kPa | 1522
303.15 K, 33938 kPa | 1528.3
303.15 K, 33968 kPa | 1528.3
303.15 K, 34013 kPa | 1528.4
303.15 K, 34044 kPa | 1528.6
303.15 K, 34091 kPa | 1528.8
303.16 K, 1756 kPa | 1377.1
303.16 K, 1773 kPa | 1377.2
303.16 K, 1841 kPa | 1377.8
303.16 K, 2155 kPa | 1380.4
303.16 K, 2175 kPa | 1380.5
303.16 K, 2196 kPa | 1380.8
303.16 K, 2220 kPa | 1380.9
303.16 K, 2238 kPa | 1381
303.16 K, 2262 kPa | 1381.2
303.16 K, 2781 kPa | 1385.3
303.16 K, 2809 kPa | 1385.5
303.16 K, 2833 kPa | 1385.7
303.16 K, 2855 kPa | 1385.8
303.16 K, 2874 kPa | 1386.1
303.16 K, 2903 kPa | 1386.2
303.16 K, 2923 kPa | 1386.5
303.16 K, 2945 kPa | 1386.6
303.16 K, 2970 kPa | 1386.7
303.16 K, 3045 kPa | 1387.3
303.16 K, 3161 kPa | 1388.3
303.16 K, 3180 kPa | 1388.4
303.16 K, 3245 kPa | 1388.9
303.16 K, 3334 kPa | 1389.4
303.16 K, 4314 kPa | 1396.7
303.16 K, 4345 kPa | 1396.9
303.16 K, 4366 kPa | 1397.2
303.16 K, 4395 kPa | 1397.2
303.16 K, 4845 kPa | 1400.4
303.16 K, 9092 kPa | 1427.1
303.16 K, 9131 kPa | 1427.4
303.16 K, 9158 kPa | 1427.5
303.16 K, 9192 kPa | 1427.6
303.16 K, 9223 kPa | 1427.9
303.16 K, 20848 kPa | 1482.9
303.16 K, 20912 kPa | 1483.1
303.16 K, 20941 kPa | 1483.3
303.16 K, 20974 kPa | 1483.4
303.16 K, 21003 kPa | 1483.6
313.14 K, 2256 kPa | 1337.4
313.14 K, 2281 kPa | 1337.6
313.14 K, 2307 kPa | 1337.9
313.14 K, 2329 kPa | 1337.9
313.14 K, 2362 kPa | 1338.4
313.14 K, 2381 kPa | 1338.6
313.14 K, 2406 kPa | 1338.8
313.14 K, 2431 kPa | 1339.2
313.14 K, 2463 kPa | 1339.5
313.14 K, 2485 kPa | 1339.7
313.14 K, 2518 kPa | 1339.8
313.14 K, 2546 kPa | 1340.2
313.14 K, 2571 kPa | 1340.5
313.14 K, 2596 kPa | 1340.7
313.14 K, 2621 kPa | 1340.9
313.14 K, 2650 kPa | 1341.2
313.14 K, 2671 kPa | 1341.5
313.14 K, 3117 kPa | 1345.6
313.14 K, 3144 kPa | 1345.9
313.14 K, 3170 kPa | 1346
313.14 K, 3193 kPa | 1346.3
313.14 K, 3223 kPa | 1346.7
313.14 K, 3247 kPa | 1346.8
313.14 K, 3275 kPa | 1347
313.14 K, 4237 kPa | 1355.5
313.14 K, 4266 kPa | 1355.8
313.14 K, 4299 kPa | 1356.1
313.14 K, 4328 kPa | 1356.3
313.14 K, 4487 kPa | 1357.8
313.14 K, 4509 kPa | 1358
313.14 K, 4539 kPa | 1358.2
313.14 K, 4561 kPa | 1358.3
313.14 K, 4590 kPa | 1358.4
313.14 K, 4614 kPa | 1358.7
313.14 K, 4639 kPa | 1359
313.14 K, 4660 kPa | 1359.2
313.14 K, 4688 kPa | 1359.4
313.14 K, 4710 kPa | 1359.5
313.14 K, 5002 kPa | 1362.2
313.14 K, 6187 kPa | 1371.4
313.14 K, 6210 kPa | 1371.5
313.14 K, 6240 kPa | 1371.6
313.14 K, 6264 kPa | 1371.8
313.14 K, 6295 kPa | 1372.2
313.14 K, 6319 kPa | 1372.4
313.14 K, 6347 kPa | 1372.4
313.14 K, 6379 kPa | 1372.7
313.14 K, 8595 kPa | 1388.5
313.14 K, 12590 kPa | 1413.1
313.14 K, 13048 kPa | 1415.8
313.14 K, 13083 kPa | 1416
313.14 K, 14273 kPa | 1422.5
313.14 K, 14312 kPa | 1422.7
313.14 K, 14342 kPa | 1422.9
313.14 K, 18535 kPa | 1443.8
313.14 K, 18569 kPa | 1443.9
313.14 K, 18598 kPa | 1444.1
313.14 K, 18633 kPa | 1444.1
313.14 K, 18662 kPa | 1444.3
313.14 K, 25516 kPa | 1473.5
313.14 K, 25569 kPa | 1473.8
313.14 K, 25615 kPa | 1473.9
313.14 K, 25663 kPa | 1474
313.14 K, 25698 kPa | 1474.2
313.14 K, 25734 kPa | 1474.4
313.14 K, 25776 kPa | 1474.5
313.14 K, 25819 kPa | 1474.7
313.14 K, 25862 kPa | 1474.7
313.14 K, 25905 kPa | 1475
313.14 K, 25953 kPa | 1475.3
313.14 K, 25993 kPa | 1475.3
313.14 K, 26035 kPa | 1475.5
313.14 K, 26070 kPa | 1475.7
313.14 K, 26129 kPa | 1475.7
313.14 K, 26171 kPa | 1475.9
313.14 K, 26230 kPa | 1476.2
313.14 K, 26265 kPa | 1476.5
313.14 K, 26307 kPa | 1476.7
313.14 K, 26355 kPa | 1476.6
313.14 K, 26384 kPa | 1476.9
313.14 K, 26431 kPa | 1477
313.14 K, 26467 kPa | 1477.1
313.14 K, 26516 kPa | 1477.3
313.14 K, 26563 kPa | 1477.5
313.14 K, 26598 kPa | 1477.7
313.14 K, 26634 kPa | 1477.8
313.14 K, 26676 kPa | 1477.9
313.14 K, 26712 kPa | 1478
313.14 K, 26759 kPa | 1478.2
313.14 K, 26806 kPa | 1478.3
313.14 K, 26855 kPa | 1478.6
313.14 K, 26891 kPa | 1478.6
313.14 K, 26928 kPa | 1478.9
313.14 K, 26976 kPa | 1479
313.14 K, 27297 kPa | 1480.2
313.14 K, 27651 kPa | 1481.6
313.14 K, 27676 kPa | 1481.7
313.14 K, 27719 kPa | 1481.9
313.14 K, 27749 kPa | 1482
313.14 K, 27835 kPa | 1482.4
313.14 K, 27864 kPa | 1482.4
313.14 K, 28790 kPa | 1485.8
313.14 K, 28820 kPa | 1485.9
313.14 K, 28855 kPa | 1486.1
313.14 K, 28889 kPa | 1486.1
313.14 K, 28918 kPa | 1486.2
313.14 K, 28953 kPa | 1486.3
313.14 K, 28993 kPa | 1486.5
313.14 K, 29033 kPa | 1486.8
313.14 K, 29059 kPa | 1486.6
313.14 K, 29641 kPa | 1489
313.14 K, 29682 kPa | 1489.1
313.14 K, 29711 kPa | 1489.2
313.14 K, 29757 kPa | 1489.4
313.14 K, 29798 kPa | 1489.5
313.14 K, 29841 kPa | 1489.5
313.14 K, 29883 kPa | 1489.8
313.14 K, 29915 kPa | 1489.9
313.14 K, 29950 kPa | 1489.9
313.14 K, 29980 kPa | 1490.2
313.14 K, 30015 kPa | 1490.2
313.14 K, 30045 kPa | 1490.2
313.14 K, 30081 kPa | 1490.3
313.14 K, 30117 kPa | 1490.6
313.14 K, 30159 kPa | 1490.6
313.14 K, 30185 kPa | 1490.7
313.14 K, 30217 kPa | 1491
313.14 K, 30259 kPa | 1491.1
313.14 K, 30299 kPa | 1491.3
313.14 K, 30342 kPa | 1491.3
313.14 K, 30376 kPa | 1491.5
313.14 K, 30424 kPa | 1491.8
313.14 K, 30466 kPa | 1491.8
313.14 K, 30511 kPa | 1492
313.14 K, 30547 kPa | 1492
313.14 K, 30593 kPa | 1492.2
313.14 K, 30624 kPa | 1492.2
313.14 K, 30664 kPa | 1492.6
313.14 K, 30690 kPa | 1492.5
313.14 K, 30727 kPa | 1492.7
313.14 K, 30775 kPa | 1492.8
313.14 K, 30815 kPa | 1493
313.14 K, 30847 kPa | 1493.3
313.14 K, 30889 kPa | 1493.2
313.14 K, 30921 kPa | 1493.5
313.14 K, 30962 kPa | 1493.5
